Columns and labels:
[1] = Kinetic thiol consumption assay with model thiol glutathione; type: physicochemical; parameters: Rate constant with glutathione (k(GSH)): unit not given here; conditions: for Rate constant with glutathione (k(GSH)): 500 μM ligand, 5 μM thiol, phosphate buffer pH 8; for Rate constant with Glutathione: Protein: Glutathione, cysteine position NA, in h-1
Method: (§1) A library of 120 acrylamides was screened against a) human cyclin-dependent kinase 2 (Cdk2, which contains one surface exposed cysteine residue—C177), prepared by cloning cDNA into the pRSETA bacterial expression vector to generate a poly-histidine tagged Cdk2 fusion that was purified from E. coli using standard techniques, and b) a model thiol (specific details are given below). The structures of these 120 acrylamides are set out in Table 1, above.
(§2) To wells containing 150 μL thiol (Cdk2 or model thiol) (5 μM) in degassed phosphate buffer (pH 8) was added immobilized TCEP beads (2% v/v).
(§3) After incubation of the fluorescence plates for 1 hour at room temperature, fluorescence measurements (excitation/emission of 380/470 nm) were taken on a PerkinElmer EnVision multilabel plate reader and processed with EnVision Workstation version 1.12.
(§4) Fluorescence measurements were normalized against a DMSO/thiol only control and plotted against time.
(§5) Rate constants were calculated using GraphPad software Prism version 6 by fitting a first order exponential decay to the data. The rate constant for each acrylamide with Cdk2 was divided by the rate constant for that fragment with the model thiol to provide the rate enhancement for each ligand candidate.
The model thiol in Example 1 is glutathione (GSH). Hits were defined as fragments where kCdk2/kGSH>5.8 (empirically determined as 3 standard deviations over the mean).

[2] = molecular target: T1, human cyclin-dependent kinase 2 (Cdk2) (Homo sapiens, UniProt P24941); experiment: Kinetic thiol consumption assay with wild type Cdk2 (C177); type: binding; parameters: key to Rate enhancement, Cdk2 WT: k(Cdk2) divided by k(model thiol); Rate constant with Cdk2 (k(Cdk2)): unit not given here; conditions: for Rate constant with Cdk2 (k(Cdk2)): 500 μM ligand, 5 μM thiol, phosphate buffer pH 8; for Rate enhancement, Cdk2 WT: no additional mutations; for Rate constant with Cdk2 WT: Protein: Cdk2, cysteine position WT, in h^-1; for k(Cdk2)/k(GSH) rate enhancement: model thiol glutathione
T1 construct: poly-histidine; made in house; host or cells: E. coli
Method: as §1, §2, §3, §4, §5

Cdk2(C177A, F80C) = molecular target: T2, Cdk2(C177A, F80C) (Homo sapiens, UniProt P24941, C177A/F80C); experiment: Kinetic thiol consumption assay with Cdk2 mutant F80C, incl. kobs versus concentration (Kd, k2); type: binding; parameters: key to Rate enhancement, Cdk2 F80C: Cdk2 rate constant divided by model-thiol rate constant; conditions: additional mutation C177A; for Rate constant with Cdk2 F80C: Protein: Cdk2, cysteine position F80C, in h^-1
T2 construct: poly-histidine; made in house; host or cells: E. coli
Method: Therefore the assay can be used to calculate both k2 and Kd by experimentally determining kobs at a suitable range of ligand candidate concentrations. Typically Kd and k2 would then be determined by fitting a hyperbolic curve to a plot of kobs against ligand candidate concentration (FIG. 9).
as §2, §3, §4, §5
(§6) A further set of set of additional Cdk2 mutants were screened, all containing the C177A mutation and therefore with only one cysteine on the surface: • F80C (without the K278C mutation) • H71C • S276C • N272 • T182C • R122C • S181C
(§7) Mutations were introduced by site-directed mutagenesis and the resulting cDNA was cloned into the pRSETA bacterial expression vector to generate a poly-histidine tagged Cdk2 fusion that was purified from E. coli using standard techniques.
Rate constants were calculated as described in the methodology section of Examples 1 and 2.

Cdk2(H71C) (C177A) = molecular target: T3, Cdk2(H71C) (C177A) (Homo sapiens, UniProt P24941, C177A/H71C); experiment: Kinetic thiol consumption assay with Cdk2 mutant H71C; type: binding; parameters: key to Rate enhancement, Cdk2 H71C: rate constant with Cdk2 ÷ rate constant with model thiol (fold); conditions: additional mutation C177A; for Rate constant with Cdk2 H71C: Protein: Cdk2, cysteine position H71C, in h^-1
T3 construct: poly-histidine; made in house; host or cells: E. coli
Method: as §2, §3, §4, §5, §6, §7

Cdk2(S276C) (C177A) = molecular target: T4, Cdk2(S276C) (C177A) (Homo sapiens, UniProt P24941, C177A/S276C); experiment: Kinetic thiol consumption assay with Cdk2 mutant S276C; type: binding; parameters: key to Rate enhancement, Cdk2 S276C: rate constant with Cdk2 ÷ rate constant with model thiol (fold); conditions: additional mutation C177A; for Rate constant with Cdk2 S276C: Protein: Cdk2, cysteine position S276C, in h^-1
T4 construct: poly-histidine; made in house; host or cells: E. coli
Method: as §2, §3, §4, §5, §6, §7

Cdk2(N272C) (C177A) = molecular target: T5, Cdk2(N272C) (C177A) (Homo sapiens, UniProt P24941, C177A/N272C); experiment: Kinetic thiol consumption assay with Cdk2 mutant N272C; type: binding; parameters: key to Rate enhancement, Cdk2 N272: rate constant with Cdk2 ÷ rate constant with model thiol (fold); conditions: for Rate enhancement, Cdk2 N272: Cdk2 N272, additional mutation C177A; for Rate constant with Cdk2 N272C: Protein: Cdk2, cysteine position N272C, additional mutation C177A, in h^-1
T5 construct: poly-histidine; made in house; host or cells: E. coli
Method: as §2, §3, §4, §5, §6, §7

Cdk2(T182C) (C177A) = molecular target: T6, Cdk2(T182C) (C177A) (Homo sapiens, UniProt P24941, C177A/T182C); experiment: Kinetic thiol consumption assay with Cdk2 mutant T182C; type: binding; parameters: key to Rate enhancement, Cdk2 T182C: rate constant with Cdk2 ÷ rate constant with model thiol (fold); conditions: additional mutation C177A; for Rate constant with Cdk2 T182C: Protein: Cdk2, cysteine position T182C, in h^-1
T6 construct: poly-histidine; made in house; host or cells: E. coli
Method: as §2, §3, §4, §5, §6, §7

Cdk2(R122C) (C177A) = molecular target: T7, Cdk2(R122C) (C177A) (Homo sapiens, UniProt P24941, C177A/R122C); experiment: Kinetic thiol consumption assay with Cdk2 mutant R122C; type: binding; parameters: key to Rate enhancement, Cdk2 R122C: rate constant with Cdk2 ÷ rate constant with model thiol (fold); conditions: additional mutation C177A; for Rate constant with Cdk2 R122C: Protein: Cdk2, cysteine position R122C, in h-1
T7 construct: poly-histidine; made in house; host or cells: E. coli
Method: as §2, §3, §4, §5, §6, §7

Cdk2(S181C) (C177A) = molecular target: T8, Cdk2(S181C) (C177A) (Homo sapiens, UniProt P24941, C177A/S181C); experiment: Kinetic thiol consumption assay with Cdk2 mutant S181C; type: binding; parameters: key to Rate enhancement, Cdk2 S181C: rate constant with Cdk2 ÷ rate constant with model thiol (fold); conditions: additional mutation C177A; for Rate constant with Cdk2 S181C: Protein: Cdk2, cysteine position S181C, in h^-1
T8 construct: poly-histidine; made in house; host or cells: E. coli
Method: as §2, §3, §4, §5, §6, §7

Compound | Rate constant with glutathione (k(GSH)) [1] | Rate constant with Glutathione [1] | Rate constant with Cdk2 (k(Cdk2)) [2] | Rate enhancement, Cdk2 WT [2] | Rate constant with Cdk2 WT [2] | k(Cdk2)/k(GSH) rate enhancement [2] | Rate enhancement, Cdk2 F80C (Cdk2(C177A, F80C)) | Rate enhancement, Cdk2 H71C (Cdk2(H71C) (C177A)) | Rate enhancement, Cdk2 S276C (Cdk2(S276C) (C177A)) | Rate enhancement, Cdk2 N272 (Cdk2(N272C) (C177A)) | Rate constant with Cdk2 N272C (Cdk2(N272C) (C177A)) | Rate enhancement, Cdk2 T182C (Cdk2(T182C) (C177A)) | Rate constant with Cdk2 T182C (Cdk2(T182C) (C177A)) | Rate enhancement, Cdk2 R122C (Cdk2(R122C) (C177A)) | Rate constant with Cdk2 R122C (Cdk2(R122C) (C177A)) | Rate enhancement, Cdk2 S181C (Cdk2(S181C) (C177A)) | Rate constant with Cdk2 S181C (Cdk2(S181C) (C177A)) | Rate constant with Cdk2 F80C (Cdk2(C177A, F80C)) | Rate constant with Cdk2 H71C (Cdk2(H71C) (C177A)) | Rate constant with Cdk2 S276C (Cdk2(S276C) (C177A))
C=CC(=O)N1CC(OCCN(CC)CC)C1 [CA-145] | 0.00318 | 0.003156 | 0.00205 | 0.6483 | 0.002046 | 0.6425 | 0 | 0 | 0 | 1.155 | 0.003646 | 1.904 | 0.00601 | 0.846 | 0.00267 | 2.572 | 0.008117 |  |  | 
C=CC(=O)N(Cc1ccco1)C12CC3CC(CC(C3)C1)C2 [CA-157] | 0.00399 | 0.008283 | 0.00288 | 1.257 | 0.01041 | 0.7234 | 0.165 | 1.058 | 68.22 | 87.21 | 0.7224 | 10.22 | 0.08469 | 0.376 | 0.003114 | 0.9237 | 0.007651 | 0.001367 | 0.008761 | 0.5651
C=CC(=O)N(C)C1C2CCOC2C1(C)C (stereo not drawn) [CA-182] | 0.00304 | 0.003007 | 0.00381 | 1.268 | 0.003813 | 1.254 | 0 | 0.6721 | 0.6169 | 1.56 | 0.004691 | 6.867 | 0.02065 | 1.368 | 0.004115 | 3.018 | 0.009074 |  | 0.002021 | 0.001855
C#CCN1CCCN(C(=O)C=C)CC1 [CA-196] | 0.00365 | 0.003626 | 0.00372 | 1.03 | 0.003735 | 1.021 | 0.4719 | 0 | 0.4186 | 0.8296 | 0.003008 | 2.74 | 0.009935 | 0.7394 | 0.002681 | 0.7592 | 0.002753 | 0.001711 |  | 0.001518

Reference: patent publication US11415579B2, “Assay for measuring a rate of reaction between a target and a ligand candidate” (Imperial College Innovations Ltd., priority 2016, dated 2022)
